Reference: US10561763B2, “Oxygen generating biomaterial” (THE BOARD OF REGENTS OF THE UNIVERSITY OF TEXAS SYSTEM, priority 2013, dated 2020)

Experiment: half-life of thermal oxygen release (thermolysis) of endoperoxides in CDCl3 at 25° C.
Format: physicochemical
Conditions: CDCL3, 25° C.
From the text: In certain aspect an oxygen generating biomaterial can comprise a fast release thermolytic endoperoxide, a slow release thermolytic endoperoxide, or a slow release thermolytic endoperoxide and a fast release endoperoxide. A biomaterial can further comprise a singlet oxygen quencher. […] The ti/2 half-life is temperature dependent. This aids in both storage and release. The ti/2 is longer the lower the storage temperatures. […] The endoperoxide oxygen-carrier is most conveniently prepared by photo-oxidation of a precursor aromatic organic compound. The structure of the endoperoxide-forming compound determines its thermal stability and thus how rapidly oxygen is released and precursor compound reformed (via a “retro-Diels-Alder reaction”) at any given temperature. At body temperature the half-life (ti/2) for thermal release of ^1O2 from an endoperoxide (also known as “thermolysis”) can range from seconds to days. By combining two or more endoperoxide compounds, one with a relatively slow release rate (long ti/2) at the working temperature, and one or more with faster release rates (short ti/2), it is possible to form delivery systems with a wide range of rates, durations, and profiles of oxygen generation to suit a variety of end-use applications. In some applications it is possible to design a system that could be recharged by photo-oxidizing the reformed precursor compound(s). FIG. 1 illustrates an example of the chemistry involved.

SMILES	ti/2 in hours as measured in the presence of CDCL3 at 25° C.
CC12C=CC(C)(OO1)c1ccccc12 [1,4-dimethylnaphthalene-1,4-endoperoxide]	5 h
Cc1cccc2c1C1(C)C=CC2OO1 (centres unmarked) [1,8-dimethylnaphthalene-1,4-endoperoxide]	30 h
CC1=C(C)C2(C)OOC1(C)c1ccccc12 [1,2,3,4-tetramethylnaphthalene-1,4-endoperoxide]	indeterminant
CC1=CC2(C)OOC1(C)c1ccccc12 (centres unmarked) [1,2,4-trimethylnaphthalene-1,4-endoperoxide]	70 h
Cc1cccc2c1C1(C)C=CC2(C)OO1 (centres unmarked) [1,4,5-trimethylnaphthalene-1,4-endoperoxide]	290 h
